Drawing on patent publication US8183275B2, “Substituted imidazoles as bombesin receptor subtype-3 modulators” (Merck Sharp & Dohme Corp., priority 2006, dated 2012), this text covers IC50 for 13 compounds.

Broadly, the IC50 is the point on the concentration scale where inhibition reaches its midpoint.

For this assay, the target named is T1, human BRS-3 (Homo sapiens, UniProt P32247).
T1 construct: expressed in transfected cells
T1 sequence (P32247 1-399): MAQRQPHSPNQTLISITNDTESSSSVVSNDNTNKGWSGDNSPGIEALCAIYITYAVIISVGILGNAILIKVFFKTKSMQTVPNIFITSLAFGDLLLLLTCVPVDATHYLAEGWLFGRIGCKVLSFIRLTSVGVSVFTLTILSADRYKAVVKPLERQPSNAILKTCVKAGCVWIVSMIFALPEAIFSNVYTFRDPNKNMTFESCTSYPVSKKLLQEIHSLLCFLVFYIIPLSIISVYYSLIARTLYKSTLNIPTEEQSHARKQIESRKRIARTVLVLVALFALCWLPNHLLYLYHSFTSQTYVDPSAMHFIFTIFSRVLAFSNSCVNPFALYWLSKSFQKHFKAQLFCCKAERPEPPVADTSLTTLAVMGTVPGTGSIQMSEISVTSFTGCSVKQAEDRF
The assay can be described thus: Bombesin Receptor Subtype 3 (BRS3) binding assay (radioligand filtration). As to conditions: BRS-3 Receptor Binding Activity for Selected Compounds. How it is done:
Dissociated cells were collected by centrifuging at 1000 rpm for 10 minutes. Cell pellets were resuspended and homogenized at 4° C. using a Polytron homogenizer (setting 40, 20 stokes) in approximately 10 mL membrane preparation buffer (10 mM Tris pH 7.4, 0.01 mM Pefabloc, 10 μM phosphoramidon and 40 μg/mL Bacitracin) per T175 flask. After centrifugation at 2200 rpm (1000×g) for 10 minutes at 4° C., the supernatant was transferred to a clean centrifuge tube and spun at 18,000 rpm (38,742×g) for 15 minutes. at 4° C. […]
The radioligand, [^3H]-1-{4-[(4,5-difluoro-2-hydroxycarbonylphenyl)phenyl])-2-(4-cyclohexylmethyl-1H-imidazol-2-yl)ethane, was used for binding to receptor membranes generated with BRS3 from other species and was also utilized for the human receptor. […] After incubation for 1-2 hours at room temperature, membrane bound [^3H]-biphenyl was separated from free radiologand by filtering through GF/C filters presoaked in 1% PEI solution. The filters were washed five times with ice-cold washing buffer (50 mM Tris pH 7.4, 10 mM MgCl2, 2.5 mM EDTA and 0.02% Triton X-100). The radioactivity was determined by adding 30 μl of microscintillant/well after each plate was dried at room temperature overnight or placed at 50° C. for 1 hr.
A Packard Top Count was used to read the filter plates. The data in % inhibition of binding was plotted vs. the log molar concentration of receptor ligand (compound). The IC50 was reported as the inflection point of the resulting sigmoidal curve.
Consider `CC(C)(C)Cc1cnc(CCc2ccc(-c3ccccc3C(=O)O)cc2)[nH]1` [Example 1, 4′-{2-[4-(2,2-Dimethylpropyl)-1H-imidazol-2-yl]ethyl}biphenyl-2-carboxylic Acid], for which the IC50 was 38 nM.
As for `O=C(O)c1ccccc1-c1ccc(CCc2ncc(CC3CCCC3)[nH]2)cc1` [Example 26], the figure is 117 nM; as for `O=C(O)c1cc(F)c(F)cc1-c1ccc(CCc2nc(CC3CCCCC3)c[nH]2)cc1` [Example 94], 20 nM.
Turning to `CCC(C)(C)Cc1c[nH]c(CCc2ccc(-c3cccc(C)n3)cc2)n1` [Example 110], the IC50 is 6.3 nM.
Consider `CCC(C)(C)Cc1c[nH]c(CCc2ccc(-n3cccn3)cc2)n1` [Example 205, 1-(4-{2-[4-(2,2-dimethylbutyl)-1H-imidazol-2-yl]ethyl}phenyl)-1H-pyrazole], for which the IC50 is 33 nM. Compared with the last compound, the IC50 is about 5.2-fold higher.
`CCC(C)(C)Cc1c[nH]c(CCc2ccc(-c3cccc4cn[nH]c34)cc2)n1` [Example 221] came in with an IC50 of 4.8 nM.
Next, `CCC(C)(C)Cc1c[nH]c(CCc2ccc(N3CCCC[C@@H]3C(=O)O)cc2)n1` [Example 225, (R)-N-(4-{2-[4-(2,2-Dimethylbutyl)-1H-imidazol-2-yl]ethyl}phenyl)piperidine-2-carboxylic acid]: 18 nM; `CCC(C)(C)Cc1c[nH]c(CCc2ccc(N3CCCc4cn[nH]c43)cc2)n1` [Example 226, 7-(4-{2-[5-(2,2-Dimethylbutyl)-1H-imidazol-2-yl]ethyl}phenyl)-4,5,6,7-tetrahydro-1H-pyrazolo[3,4-b]pyridine]: 18 nM; `CCC(C)(C)Cc1c[nH]c(CCc2ccc(C3CCCCC3C(=O)O)cc2)n1` (stereo not shown) [Example 227, 2-(4-{2-[4-(2,2-Dimethylbutyl)-1H-imidazol-2-yl]ethyl}phenyl)cyclohexanecarboxylic acid]: 2.8 nM.
As for `CC(C)(Cc1cnc(CCc2ccc(-c3ccc(F)cn3)cc2)[nH]1)C1CC1` [Example 236, 2-(4-{2-[5-(2-Cyclopropyl-2-methylpropyl)-1H-imidazol-2-yl]ethyl}phenyl)-5-fluoropyridine], the IC50 turned out to be 25 nM.
Next, `CCC(CF)(CF)Cc1cnc(CCc2ccc(-c3ccc(F)cn3)cc2)[nH]1` [Example 237, 2-(4-{2-[5-(2,2-Bis(fluoromethyl)butyl)-1H-imidazol-2-yl]ethyl}phenyl)-5-fluoro-pyridine]: 15 nM; `CC(C)(C)Cc1cnc(CCc2ccc(-c3ccccn3)cc2)[nH]1` [Example 240, 2-(4-{2-[4-(2,2-Dimethylpropyl)-1H-imidazol-2-yl]ethyl}phenyl)pyridine]: 116 nM; `CCC(C)(C)Cc1c[nH]c(CCc2ccc(-c3ccccc3OCc3nn[nH]n3)cc2)n1` [Example 246, 5-(4′-{2-[4-(2,2-Dimethylbutyl)-1H-imidazol-2-yl]ethyl}biphenyl-2-yloxymethyl)-1H-tetrazole]: 5.3 nM.
